Test results published in patent US11013817B2, “Nanoparticles for drug delivery to treat bone disease” (The Cleveland Clinic Foundation, priority 2016, dated 2021).

Assay: Solid state solubility of PTX and TXT in polymers (phase separation in cast films)
Assay type: physicochemical
Design: key: +ve: Phase separation; −ve: No phase separation
Source text: For this example, polymer and drug solutions in chloroform at different % of drug to polymer were casted into films on glass slides. Following solvent evaporation of chloroform in a chemical hood overnight, the casted films were observed under a light microscope. Phase separation was clearly evident from crystallization of the drug in the polymer film whereas the films were homogeneous when there was no phase separation.

CC(=O)O[C@H]1C(=O)[C@@]2(C)[C@H]([C@H](OC(=O)c3ccccc3)[C@]3(O)C[C@H](OC(=O)[C@H](O)[C@@H](NC(=O)c4ccccc4)c4ccccc4)C(C)=C1C3(C)C)[C@]1(OC(C)=O)CO[C@@H]1C[C@@H]2O [Paclitaxel, 5ß,20-Epoxy-1,2a,4,7ß,10ß,13a-hexahydroxytax-11-en-9-one 4,10-diacetate 2-benzoate 13-ester with (2R,3S)-N-benzoyl-3-phenylisoserine]
Phase Separation (drug 1% w/w, polymer inherent viscosity 0.16 dL/g, Lactide/Glycolide 50/50): +
Phase Separation (drug 1% w/w, polymer inherent viscosity 0.18 dL/g, Lactide/Glycolide 75/25): +
Phase Separation (drug 1% w/w, polymer inherent viscosity 0.26-0.54 dL/g, Lactide/Glycolide 50/50, Ester Terminated): −
Phase Separation (drug 1% w/w, polymer inherent viscosity 0.39 dL/g, Lactide/Glycolide 50/50): +
Phase Separation (drug 1% w/w, polymer inherent viscosity 0.55-0.75 dL/g, Lactide/Glycolide 50/50, Carbohydrate end Group): −
Phase Separation (drug 1% w/w, polymer inherent viscosity 0.63 dL/g, Lactide/Glycolide 85/15): +
Phase Separation (drug 1% w/w, polymer inherent viscosity 0.64 dL/g, Lactide/Glycolide 65/35): +
Phase Separation (drug 1% w/w, polymer inherent viscosity 0.64 dL/g, Lactide/Glycolide 75/25): +
Phase Separation (drug 1% w/w, polymer inherent viscosity 0.67 dL/g, Lactide/Glycolide 65/35): +
Phase Separation (drug 1% w/w, polymer inherent viscosity 0.69 dL/g, Lactide/Glycolide 50/50 (first of two such lines, r12)): +
Phase Separation (drug 1% w/w, polymer inherent viscosity 0.69 dL/g, Lactide/Glycolide 50/50 (second of two such lines, r13)): +
Phase Separation (drug 1% w/w, polymer inherent viscosity 0.76-0.94 dL/g, Lactide/Glycolide 50/50): +
Phase Separation (drug 1% w/w, polymer inherent viscosity 0.87 dL/g, Lactide/Glycolide 50/50): +
Phase Separation (drug 1% w/w, polymer inherent viscosity 0.95-1.20 dL/g, Lactide/Glycolide 50/50): −
Phase Separation (drug 1% w/w, polymer inherent viscosity 1.15 dL/g, Lactide/Glycolide 50/50): +
Phase Separation (drug 1% w/w, polymer inherent viscosity 1.24 dL/g, Lactide/Glycolide 50/50): +
Phase Separation (drug 5% w/w, polymer inherent viscosity 0.16 dL/g, Lactide/Glycolide 50/50): +
Phase Separation (drug 5% w/w, polymer inherent viscosity 0.18 dL/g, Lactide/Glycolide 75/25): +
Phase Separation (drug 5% w/w, polymer inherent viscosity 0.26-0.54 dL/g, Lactide/Glycolide 50/50, Ester Terminated): −
Phase Separation (drug 5% w/w, polymer inherent viscosity 0.39 dL/g, Lactide/Glycolide 50/50): +
Phase Separation (drug 5% w/w, polymer inherent viscosity 0.55-0.75 dL/g, Lactide/Glycolide 50/50, Carbohydrate end Group): −
Phase Separation (drug 5% w/w, polymer inherent viscosity 0.63 dL/g, Lactide/Glycolide 85/15): +
Phase Separation (drug 5% w/w, polymer inherent viscosity 0.64 dL/g, Lactide/Glycolide 65/35): +
Phase Separation (drug 5% w/w, polymer inherent viscosity 0.64 dL/g, Lactide/Glycolide 75/25): +
Phase Separation (drug 5% w/w, polymer inherent viscosity 0.67 dL/g, Lactide/Glycolide 65/35): +
Phase Separation (drug 5% w/w, polymer inherent viscosity 0.69 dL/g, Lactide/Glycolide 50/50 (first of two such lines, r12)): +
Phase Separation (drug 5% w/w, polymer inherent viscosity 0.69 dL/g, Lactide/Glycolide 50/50 (second of two such lines, r13)): +
Phase Separation (drug 5% w/w, polymer inherent viscosity 0.76-0.94 dL/g, Lactide/Glycolide 50/50): +
Phase Separation (drug 5% w/w, polymer inherent viscosity 0.87 dL/g, Lactide/Glycolide 50/50): +
Phase Separation (drug 5% w/w, polymer inherent viscosity 0.95-1.20 dL/g, Lactide/Glycolide 50/50): −
Phase Separation (drug 5% w/w, polymer inherent viscosity 1.15 dL/g, Lactide/Glycolide 50/50): +
Phase Separation (drug 5% w/w, polymer inherent viscosity 1.24 dL/g, Lactide/Glycolide 50/50): +
Phase Separation (drug 10% w/w, polymer inherent viscosity 0.16 dL/g, Lactide/Glycolide 50/50): +
Phase Separation (drug 10% w/w, polymer inherent viscosity 0.18 dL/g, Lactide/Glycolide 75/25): +
Phase Separation (drug 10% w/w, polymer inherent viscosity 0.26-0.54 dL/g, Lactide/Glycolide 50/50, Ester Terminated): −
Phase Separation (drug 10% w/w, polymer inherent viscosity 0.39 dL/g, Lactide/Glycolide 50/50): +
Phase Separation (drug 10% w/w, polymer inherent viscosity 0.55-0.75 dL/g, Lactide/Glycolide 50/50, Carbohydrate end Group): −
Phase Separation (drug 10% w/w, polymer inherent viscosity 0.63 dL/g, Lactide/Glycolide 85/15): +
Phase Separation (drug 10% w/w, polymer inherent viscosity 0.64 dL/g, Lactide/Glycolide 65/35): +
Phase Separation (drug 10% w/w, polymer inherent viscosity 0.64 dL/g, Lactide/Glycolide 75/25): +
Phase Separation (drug 10% w/w, polymer inherent viscosity 0.67 dL/g, Lactide/Glycolide 65/35): +
Phase Separation (drug 10% w/w, polymer inherent viscosity 0.69 dL/g, Lactide/Glycolide 50/50 (first of two such lines, r12)): +
Phase Separation (drug 10% w/w, polymer inherent viscosity 0.69 dL/g, Lactide/Glycolide 50/50 (second of two such lines, r13)): +
Phase Separation (drug 10% w/w, polymer inherent viscosity 0.76-0.94 dL/g, Lactide/Glycolide 50/50): +
Phase Separation (drug 10% w/w, polymer inherent viscosity 0.87 dL/g, Lactide/Glycolide 50/50): +
Phase Separation (drug 10% w/w, polymer inherent viscosity 0.95-1.20 dL/g, Lactide/Glycolide 50/50): −
Phase Separation (drug 10% w/w, polymer inherent viscosity 1.15 dL/g, Lactide/Glycolide 50/50): +
Phase Separation (drug 10% w/w, polymer inherent viscosity 1.24 dL/g, Lactide/Glycolide 50/50): +
Phase Separation (drug 15% w/w, polymer inherent viscosity 0.16 dL/g, Lactide/Glycolide 50/50): +
Phase Separation (drug 15% w/w, polymer inherent viscosity 0.18 dL/g, Lactide/Glycolide 75/25): +
Phase Separation (drug 15% w/w, polymer inherent viscosity 0.26-0.54 dL/g, Lactide/Glycolide 50/50, Ester Terminated): −
Phase Separation (drug 15% w/w, polymer inherent viscosity 0.39 dL/g, Lactide/Glycolide 50/50): +
Phase Separation (drug 15% w/w, polymer inherent viscosity 0.55-0.75 dL/g, Lactide/Glycolide 50/50, Carbohydrate end Group): −
Phase Separation (drug 15% w/w, polymer inherent viscosity 0.63 dL/g, Lactide/Glycolide 85/15): +
Phase Separation (drug 15% w/w, polymer inherent viscosity 0.64 dL/g, Lactide/Glycolide 65/35): +
Phase Separation (drug 15% w/w, polymer inherent viscosity 0.64 dL/g, Lactide/Glycolide 75/25): +
Phase Separation (drug 15% w/w, polymer inherent viscosity 0.67 dL/g, Lactide/Glycolide 65/35): +
Phase Separation (drug 15% w/w, polymer inherent viscosity 0.69 dL/g, Lactide/Glycolide 50/50 (first of two such lines, r12)): +
Phase Separation (drug 15% w/w, polymer inherent viscosity 0.69 dL/g, Lactide/Glycolide 50/50 (second of two such lines, r13)): +
Phase Separation (drug 15% w/w, polymer inherent viscosity 0.76-0.94 dL/g, Lactide/Glycolide 50/50): +
Phase Separation (drug 15% w/w, polymer inherent viscosity 0.87 dL/g, Lactide/Glycolide 50/50): +
Phase Separation (drug 15% w/w, polymer inherent viscosity 0.95-1.20 dL/g, Lactide/Glycolide 50/50): −
Phase Separation (drug 15% w/w, polymer inherent viscosity 1.15 dL/g, Lactide/Glycolide 50/50): +
Phase Separation (drug 15% w/w, polymer inherent viscosity 1.24 dL/g, Lactide/Glycolide 50/50): +
Phase Separation (drug 20% w/w, polymer inherent viscosity 0.16 dL/g, Lactide/Glycolide 50/50): +
Phase Separation (drug 20% w/w, polymer inherent viscosity 0.18 dL/g, Lactide/Glycolide 75/25): +
Phase Separation (drug 20% w/w, polymer inherent viscosity 0.26-0.54 dL/g, Lactide/Glycolide 50/50, Ester Terminated): −
Phase Separation (drug 20% w/w, polymer inherent viscosity 0.39 dL/g, Lactide/Glycolide 50/50): +
Phase Separation (drug 20% w/w, polymer inherent viscosity 0.55-0.75 dL/g, Lactide/Glycolide 50/50, Carbohydrate end Group): −
Phase Separation (drug 20% w/w, polymer inherent viscosity 0.63 dL/g, Lactide/Glycolide 85/15): +
Phase Separation (drug 20% w/w, polymer inherent viscosity 0.64 dL/g, Lactide/Glycolide 65/35): +
Phase Separation (drug 20% w/w, polymer inherent viscosity 0.64 dL/g, Lactide/Glycolide 75/25): +
Phase Separation (drug 20% w/w, polymer inherent viscosity 0.67 dL/g, Lactide/Glycolide 65/35): +
Phase Separation (drug 20% w/w, polymer inherent viscosity 0.69 dL/g, Lactide/Glycolide 50/50 (first of two such lines, r12)): +
Phase Separation (drug 20% w/w, polymer inherent viscosity 0.69 dL/g, Lactide/Glycolide 50/50 (second of two such lines, r13)): +
Phase Separation (drug 20% w/w, polymer inherent viscosity 0.76-0.94 dL/g, Lactide/Glycolide 50/50): +
Phase Separation (drug 20% w/w, polymer inherent viscosity 0.87 dL/g, Lactide/Glycolide 50/50): +
Phase Separation (drug 20% w/w, polymer inherent viscosity 0.95-1.20 dL/g, Lactide/Glycolide 50/50): +
Phase Separation (drug 20% w/w, polymer inherent viscosity 1.15 dL/g, Lactide/Glycolide 50/50): +
Phase Separation (drug 20% w/w, polymer inherent viscosity 1.24 dL/g, Lactide/Glycolide 50/50): +
